From PMC8465290, “Zoledronic Acid as a Novel Dual Blocker of KIR6.1/2-SUR2 Subunits of ATP-Sensitive K^+ Channels: Role in the Adverse Drug Reactions” (Pharmaceutics, 2021)

Tests used:
[1] = Pharmacovigilance analysis of A.D.R. in EudraVigilance database; set-up: species or system human; conditions: for rhabdomyolysis, % of A.D.R.: within musculoskeletal and connective tissue disorders
Excerpt: All coding preferred terms per System Organ Class (S.O.C.) were screened in the EudraVigilance database (http://www.adrreports.eu/ accessed on 1 May 2021), and those potentially associated with KATP channel blocking actions were reported and subject to analysis.
The data were extracted from EudraVigilance, collected, and analyzed on Microsoft 365 Excel software package (Microsoft 10.00). The not specified category was not included in the calculation. The duplication of a specific report per S.O.C. was evaluated manually and excluded from the analysis.
The Proportional Reporting Ratio (P.R.R.) was calculated using the following equation: a/(a+c)/b/(b + d) where a is the reaction of interest to a given drug of interest, b is the reaction of interest for all other drugs in the class, c are all other reactions to a given drug of interest, and d are all other reactions to all other drugs in the class. Signal definition: P.R.R. ≥ 2, a minimum of three ratios/cases for the reaction of interest, X^2 ≥ 4. No signal is identified if P.R.R. is = 1 [47].

[2] = tested on: KATP channels of femora primary bone cells; assay: KATP currents in cell-attached patches of femora (long bone) primary bone cells; assay type: cell-based, mice; conditions: C-A patches, nanomolar concentrations, Figure 1C
Procedure: The culture of primary bone cells from adult mice was obtained from long bones (tibia and femur) and calvaria, as previously described. Bones were collected, cleaned, and flushed for removing the internal bone marrow cells. Small bone pieces of around 1 mm^3 were treated with trypsin-EDTA 0.25% (w/v) for 1 h and with 0.2% collagenase solution for an additional hour in a shaking water bath to remove all remaining soft tissue and adherent cells. Clean bone pieces have been cultured in basal medium enriched with 50 µg/mL of ascorbic acid. Osteoblasts from femora (Figure S1A, Supplementary Material) and calvaria chips (Figure S1B) were positive to Alizarin red staining (Figure S1C). The marker of osteoblasts was positive, as tested by the PCR expression analysis on cell pellets (Figure S1D).
The solutions for whole-cell and cell attached patches were as follows. The pipette solution contained 132 mM KCl, 1 mM ethylene glycol-bis(β-aminoethylether)-N,N,N′,N′-tetraaceticacid (EGTA), 10 mM NaCl, 2 mM MgCl2, 10 mM HEPES, 1 mM Na2ATP, and 0.3 mM Na2GDP (pH = 7.2). The bath solution contained 142 mM NaCl, 2.8 mM KCl, 1 mM CaCl2, 1 mM MgCl2, 11 mM glucose, and 10 mM HEPES (pH = 7.4).
The whole-cell and cell-attached patch-clamp experiments were performed in asymmetrical K^+ ion concentration in physiological conditions using pipettes with the resistance of 3–5 MΩ.
Drug actions on the channel currents recorded during instantaneous I/V relationships were investigated by applying a depolarization protocol, in response to voltage pulses from −180 mV to +100 mV (Vm) in 20 mV steps. Currents were expressed as densities (pA/pF) to control for cell size/capacitance differences. All experiments were performed at room temperature (20–22 °C) and sampled at 2 kHz (filter = 1 kHz) using an Axopatch-1D amplifier equipped with a CV-4 headstage (Axon Instruments; Foster City, CA, USA). Drug solutions were applied using a fast perfusion system during the continuous monitoring of the seal resistance at 18–22 °C room temperature in excised patches. In whole-cell and cell-attached patch-clamp experiments, before recording, the cells were equilibrated for 10 s with the solution. Data acquisition and analysis were performed using pCLAMP 10 software suite (Axon Instruments; Foster City, CA, USA), as previously described. Seal resistance was continuously monitored during the experiment.
The percentage of KATP current inhibition induced by ZOL was calculated as (I CTRL-I drug)/(I CTRL-I BaCl2) × −100. The concentration response data of ZOL against different KATP channel currents were fitted by an algorithm using the non-linear dynamic fitting routine of Sigma Plot, 10.0.

[3] = within the KATP channel blockers

hypoglycemia, % of the A.D.R. per S.O.C. [1] | rhabdomyolysis, % of A.D.R. [1] | Proportional Reporting Ratio (P.R.R.) hypoglycemia [1, 3] | Proportional Reporting Ratio (P.R.R.) palpitations [1, 3] | Proportional Reporting Ratio (P.R.R.) rhabdomyolysis [1, 3] | Compound | Proportional Reporting Ratio (P.R.R.) arrhythmias [1, 3] | inhibition of KATP currents in C-A patches (in words) [2]
75.6% | 17.7% | ≥ 2 | – | – | CCC1=C(C)CN(C(=O)NCCc2ccc(S(=O)(=O)NC(=O)N[C@H]3CC[C@H](C)CC3)cc2)C1=O [glimepiride] | – | –
77.9% | 18.4% | ≥ 2 | ≥ 2 | ≥ 2 | CC(C)[C@H]1CC[C@H](C(=O)N[C@H](Cc2ccccc2)C(=O)O)CC1 [nateglinide] | ≥ 2 | –
84.6% | 17.8% | ≥ 2 | – | – | CCOc1cc(CC(=O)N[C@@H](CC(C)C)c2ccccc2N2CCCCC2)ccc1C(=O)O [repaglinide] | – | –
– | – | – | – | – | CCCCNC(=O)NS(=O)(=O)c1ccc(C)cc1 [tolbutamide] | – | less effective inhibitor
